Results as given in patent US20030083315A1, “Human chymase inhibitors” (priority 2000, published 2003).

Tests used:
[1] = target: T1, recombinant human mast cell chymase (Homo sapiens, UniProt P23946); test: Inhibition of enzyme activity of recombinant human mast cell chymase; format: biochemical; conditions: active-type human mast cell chymase, substrate succinyl-alanyl-histidyl-prolyl-phenylalanylparanitroanilide 0.5 mM, room temperature 5 min, absorption at 405
T1 construct: made in house; host or cells: insect cell (Tn 5) infected with recombinant baculovirus
T1 sequence (P23946 22-247): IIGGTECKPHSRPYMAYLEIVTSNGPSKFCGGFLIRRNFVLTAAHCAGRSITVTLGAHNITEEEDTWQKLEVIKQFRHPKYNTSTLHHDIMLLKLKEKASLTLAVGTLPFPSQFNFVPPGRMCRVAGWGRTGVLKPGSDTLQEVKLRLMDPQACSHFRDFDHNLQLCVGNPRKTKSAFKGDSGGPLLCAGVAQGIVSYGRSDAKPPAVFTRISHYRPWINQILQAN
Method: A recombinant pro-type human mast cell chymase was prepared according to the report by Urata et al., Journal of Biological Chemistry 17173, Vol. 266 (1991). That is, the product was purified from the supernatant of the culture broth of insect cell (Tn 5) infected with a recombinant baculovirus containing a cDNA encoding a human mast cell chymase by heparin sepharose (manufactured by Pharmacia Co.). The obtained chymase was further activated according to the report of Murakami et al., Journal of Biological Chemistry, 2218, Vol. 270 (1995), and then it was purified by heparin sepharose to yield an active-type human mast cell chymase.
To 50 μl of buffer A (0.5 to 3.0 M NaCl, 50 mM tris-HCl, pH 8.0) containing 1 to 5 ng of the active-type human mast cell chymase obtained by Example 19 was added 2 μl of a DMSO solution containing a compound of the present invention, and the mixture was made to react at room temperature for 5 min after the addition of 50 μl of the buffer A containing 0.5 mM of succinyl-alanyl-histidyl-prolyl-phenylalanylparanitroanilide (Bacchem Co.) as a substrate. The inhibition activity was determined by measuring the variation of the absorption at 405 nm with the passage of time.

[2] = Blood concentration after forced oral administration into rat stomach; format: in vivo; conditions: SD male rat, 30 mg/kg forced into the stomach under starvation, serum, unchanged compound by HPLC; for AUC: read-out: AUC (extrapolation)
Method: By using a SD male rat, a compound having the compound number of 121, 127 or 363 was forcedly administered at a dose of 30 mg/kg into the stomach under starvation, and blood samples were taken out at 30 min, 1 hr, 2 hr, 4 hr and 8 hr after the administration. Directly after the collection of the blood samples, the serum component was separated, the compound of the present invention was extracted by a general method of solid extraction, and the obtained sample was subjected to HPLC analysis by using an ODS column to measured the amount of the unchanged compound.

[3] = In vitro metabolic test using hepatic microsome (Ms); format: in vitro ADME; conditions: hepatic microsome 1.0 mg/mL, substrate 5.0 μM, 37° C.; for MR (maximum speed of metabolism): NADPH 1.0 mM
Method: Letting the amount of the unchanged body at the initial concentration (reaction time 0 min) 100%, the speed of metabolism is determined from the amount of the decrease of the unchanged body at each reaction time, and the maximum speed of metabolism (MR) is evaluated.
MR=(the substrate concentration at reaction time 0 min−the substance concentration after the reaction)÷reaction time÷protein concentration (nmol/min/mg-protein)

## Cc1cccc2cccc(Cn3c(SCCCC(=O)O)nc4ccccc43)c12 [Compound No. 492, 4-(1-((8-methyl-1-naphthyl)methyl)benzimidazole-2-ylthio)butyric Acid]
[1]
  IC50: 1 to 10 nM

## O=C(O)CCSc1nc2ccccc2n1Cc1cccc2ccccc12 [Compound No. 496, 3-(1-((1-naphthyl)methyl)-benzimidazole-2-ylthio)propanoic acid]
[1]
  IC50: 10 to 100 nM

## CCOc1ccc2c(c1)nc(SCCCC(=O)O)n2Cc1cccc2ccccc12 [Compound No. 128, 4-(1-((1-naphthyl)methyl)-5-ethoxybenzimidazole-2-ylthio)butyric acid]
[1]
  IC50: 10 to 100 nM

## Cc1cc2nc(SCCCC(=O)O)n(Cc3cccc4cccc(C)c34)c2cc1C [Compound No. 493, 4-(1-((8-methyl-1-naphthyl)methyl)-5,6-dimethylbenzimidazole-2-ylthio)-butyric Acid]
[1]
  IC50: 1 to 10 nM

## COc1ccc2c(c1)nc(SCCCC(=O)O)n2Cc1cccc2ccccc12 [Compound No. 127, 4-((1-((1-naphthyl)methyl)-5-methoxybenzimidazole)-2-ylthio)butyric acid]
[2]
  Cmax: 76 µg/mL
  AUC: 181 µg·h/mL
[3]
  Remaining Rate (%) of Substrate at 30 min: 21.6%
  MR (maximum speed of metabolism): 0.190 nmol/min/mg-protein
[1]
  IC50: 1 to 10 nM

## Cc1ccc(C)c(Cn2c(SCCCC(=O)O)nc3cc(C#N)ccc32)c1 [Compound No. 337, 4-(1-((2,5-dimethylphenyl)methyl)-5-cyanobenzimidazole-2-ylthio)butyric Acid]
[1]
  IC50: 10 to 100 nM

## O=C(O)CCCCSc1nc2ccccc2n1Cc1cccc2ccccc12 [compound 497, 5-(1-((1-naphthyl)methyl)-benzimidazole-2-ylthio)valeric acid]
[1]
  IC50: 10 to 100 nM

## Cc1cc2nc(S(=O)(=O)CCCC(=O)O)n(Cc3cccc4ccccc34)c2cc1C [Compound No. 498, 4-(1-((1-naphthyl)methyl)-5,6-dimethylbenzimidazole-2-ylsulfonyl)butyric acid]
[1]
  IC50: 10 to 100 nM

## Cc1cc2nc(SCCCC(=O)O)n(Cc3cccc4ccccc34)c2cc1C [Compound No. 129, 4-(1-((1-naphthyl)methyl)-5,6-dimethylbenzimidazole-2-ylthio)butyric acid]
[1]
  IC50: 1 to 10 nM

## N#Cc1ccc2c(c1)nc(SCCCC(=O)O)n2Cc1cccc2ccccc12 [Compound No. 363, 4-(1-((1-naphthyl)methyl)-5-cyanobenzimidazole-2-ylthio)butyric acid]
[2]
  Cmax: 77 µg/mL
  AUC: 182 µg·h/mL
[3]
  Remaining Rate (%) of Substrate at 30 min: 57.6%
  MR (maximum speed of metabolism): 0.147 nmol/min/mg-protein
[1]
  IC50: 10 to 100 nM

## O=C(O)CCCSc1nc2cc(F)c(F)cc2n1Cc1cccc2ccccc12 [Compound No. 131, 4-(1-((1-naphthyl)methyl)-5,6-difluorobenzimidazole-2-ylthio)butyric acid]
[1]
  IC50: 10 to 100 nM

## O=C(O)CCCSc1nc2ccccc2n1Cc1cccc2ccccc12 [Compound No. 121, 4-(1-((1-naphthyl)methyl)benzimidazole-2-ylthio)butyric acid]
[2]
  Cmax: 122 µg/mL
  AUC: 226 µg·h/mL
[3]
  Remaining Rate (%) of Substrate at 30 min: 56.6%
  MR (maximum speed of metabolism): 0.235 nmol/min/mg-protein
[1]
  IC50: 1 to 10 nM

## CC(C)(CC(=O)O)C(=O)CSc1nc2ccccc2n1Cc1cccc2ccccc12 [Compound No. 494, 5-(1-((1-nanhthyl)methyl)benzimidazole-2-ylthio)-4-oxo-3,3-dimethylvaleric Acid]
[1]
  IC50: 10 to 100 nM

## O=C(O)CCCSc1nc2cc(C(F)(F)F)ccc2n1Cc1cccc2ccccc12 [Compound No. 126, 4-(1-((1-naphthyl)methyl)-5-trifluoromethylbenzimidazole-2-ylthio)butyric Acid]
[1]
  IC50: 10 to 100 nM

## COc1ccc2c(c1)nc(SCCCC(=O)O)n2Cc1cc(C)ccc1C [Compound No. 495, 4-(1-((2,5-dimethylphenil)methyl)-5-methoxybenzimidazole-2-ylthio)butyric Acid]
[1]
  IC50: 10 to 100 nM
